Laboratory results from publication PMC5736936, “Xylopine Induces Oxidative Stress and Causes G2/M Phase Arrest, Triggering Caspase-Mediated Apoptosis by p53-Independent Pathway in HCT116 Cells” (Oxidative Medicine and Cellular Longevity, 2017).

How the values were obtained:
[1] = test system: B16-F10 (murine melanoma); experiment: Cytotoxic activity, alamarBlue assay, 72 h; type: cell-based
Source text: (§1) MCF7 (human breast carcinoma), HCT116 (human colon carcinoma), HepG2 (human hepatocellular carcinoma), SCC-9 (human oral squamous cell carcinoma), HSC-3 (human oral squamous cell carcinoma), HL-60 (human promyelocytic leukemia), K-562 (human chronic myelogenous leukemia), B16-F10 (murine melanoma), MRC-5 (human lung fibroblast), WT SV40 MEF (wild-type immortalized mouse embryonic fibroblast), and BAD KO SV40 MEF (BAD gene knockout immortalized mouse embryonic fibroblast) cell lines were obtained from the American Type Culture Collection (ATCC, Manassas, VA, USA). Cells were cultured in complete medium with appropriate supplements as recommended by ATCC. All cell lines were tested for mycoplasma using the Mycoplasma Stain Kit (Sigma-Aldrich) to validate the use of cells free from contamination. Primary cell culture of peripheral blood mononuclear cells (PBMC) was obtained by standard Ficoll density protocol. The Research Ethics Committee of the Oswaldo Cruz Foundation (Salvador, BA, Brazil) approved the experimental protocol (number 031019/2013). Cell viability was examined using trypan blue exclusion assay for all experiments.
(§2) Cell viability was quantified using the alamarBlue assay according to Ahmed et al.. Cells were inserted in 96-well plates for all experiments (7 × 10^4 cells/mL for adherent cells or 3 × 10^5 cells/mL for suspended cells in 100 μL of medium). After 24 h, xylopine was dissolved in dimethyl sulfoxide (DMSO) and added to each well and incubated for 72 h. […] Four (for cell lines) or 24 h (for PBMCs) before the end of incubation, 20 μL of a stock solution (0.312 mg/mL) of the alamarBlue (resazurin, Sigma-Aldrich Co., Saint Louis, MO, USA) was added to each well. Absorbance at 570 nm and 600 nm was measured using the SpectraMax 190 Microplate Reader (Molecular Devices, Sunnyvale, CA, USA), and the drug effect was quantified as the percentage of control absorbance.

[2] = test system: HCT116 (human colon carcinoma); experiment: Cytotoxic activity, alamarBlue assay, 72 h; type: cell-based;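 for Selectivity index: SI is noncancer IC50 (MRC-5 or PBMC) divided by cancer cell IC50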
Source text: as §1, §2

[3] = test system: HL-60 (human promyelocytic leukemia); experiment: Cytotoxic activity, alamarBlue assay, 72 h; type: cell-based;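 for Selectivity index: SI is noncancer IC50 (MRC-5 or PBMC) divided by cancer cell IC50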
Source text: as §1, §2

[4] = test system: HSC3 (human oral squamous cell carcinoma); experiment: Cytotoxic activity, alamarBlue assay, 72 h; type: cell-based
Source text: as §1, §2

[5] = test system: HepG2 (human hepatocellular carcinoma); experiment: Cytotoxic activity, alamarBlue assay, 72 h; type: cell-based
Source text: as §1, §2

[6] = test system: K562 (human chronic myelogenous leukemia); experiment: Cytotoxic activity, alamarBlue assay, 72 h; type: cell-based;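 for Selectivity index: SI is noncancer IC50 (MRC-5 or PBMC) divided by cancer cell IC50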
Source text: as §1, §2

[7] = test system: MCF7 (human breast carcinoma); experiment: Cytotoxic activity, alamarBlue assay, 72 h; type: cell-based;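 for Selectivity index: SI is noncancer IC50 (MRC-5 or PBMC) divided by cancer cell IC50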
Source text: as §1, §2

[8] = test system: SCC9 (human oral squamous cell carcinoma); experiment: Cytotoxic activity, alamarBlue assay, 72 h; type: cell-based
Source text: as §1, §2

[9] = test system: MRC5 (human lung fibroblast); experiment: Cytotoxic activity, alamarBlue assay, 72 h (noncancer cells); type: cell-based; details: Homo sapiens
Source text: as §1, §2

[10] = test system: PBMC (human peripheral blood mononuclear cells); experiment: as above; type: cell-based; details: Homo sapiens
Source text: as §1, §2

[11] = test system: WT SV40 MEF (wild-type immortalized mouse embryonic fibroblast); experiment: Cytotoxic activity in wild-type fibroblasts; type: cell-based; details: WT SV40 MEF cell line
Source text: as §1, §2

[12] = test system: HCT116 cells; experiment: Cell viability by trypan blue exclusion assay; type: cell-based, human; details: for reduction of the number of viable cells: HCT116, trypan blue
Source text: as §1

[13] = test system: HCT116 cells; experiment: Mitochondrial transmembrane potential (rhodamine 123); type: cell-based, human; details: HCT116, rhodamine 123, 24 h, p < 0.05
Method: Mitochondrial transmembrane potential was determined by the retention of the dye rhodamine 123 [9]. Cells were incubated with rhodamine 123 (5 μg/mL, Sigma-Aldrich Co.) at room temperature for 15 min in the dark and washed with saline. The cells were then incubated again in saline for 30 min in the dark and cell fluorescence was determined by flow cytometry as described above.

[14] = test system: caspase-3 in HCT116 cells; experiment: Caspase-3 activation assay (colorimetric, Ac-DEVD-pNA); type: cell-based, human; details: HCT116, 48 h, p < 0.05
Method: A Caspase-3 Colorimetric Assay Kit (Sigma-Aldrich Co.) was used to investigate caspase-3 activation in xylopine-treated HCT116 cells based on the cleavage of Ac-DEVD-pNA and the analysis was performed according to the manufacturer's instructions.

[15] = test system: HCT116 cells; experiment: Nitric oxide production (DAF-FM diacetate); type: cell-based, human; details: 1 h
Method: Nitric oxide generation was detected with 4-amino-5-methylamino-2′-,7′-difluofluorescein diacetate (DAF-FM diacetate) (Molecular Probes, Eugene, OR, USA). The cells were labeled with 3 μM of DAF-FM diacetate for 60 minutes at 37°C. Following staining cells were washed with saline and incubated for an additional 15 minutes at 37°C to allow for complete deesterification of the intracellular diacatates. Then, the nitric oxide radical was measured by flow cytometry as described above.

[16] = test system: HCT116 cells; experiment: Cellular GSH level; type: cell-based, human; details: HCT116, 1 h
Method: A quantification kit for reduced glutathione (L-γ-glutamyl-L-cysteinyl-glycine, GSH, Sigma-Aldrich Co.) was used to investigate cellular GSH level in xylopine-treated HCT116 cells and the analysis was performed according to the manufacturer's instructions.

COc1ccc2c(c1)C[C@@H]1NCCc3cc4c(c-2c31)OCO4 [XYL, xylopine]
Selectivity index ([1]; IC50(MRC5)/IC50(B16-F10)): 2.5
Selectivity index ([1]; IC50(PBMC)/IC50(B16-F10)): 1.9
IC50 ([1]; Mus musculus, B16-F10, alamarBlue, 72 h): 9.6 µM
IC50 ([2]; Homo sapiens, HCT-116, HCT116, alamarBlue, 72 h): 6.4 µM
Selectivity index ([2]; IC50(MRC5)/IC50(HCT116)): 3.8
Selectivity index ([2]; IC50(PBMC)/IC50(HCT116)): 2.9
IC50 ([3]; Homo sapiens, HL-60, alamarBlue, 72 h): 18.5 µM
Selectivity index ([3]; IC50(MRC5)/IC50(HL-60)): 1.3
Selectivity index ([3]; IC50(PBMC)/IC50(HL-60)): 1
IC50 ([4]; Homo sapiens, HSC-3, HSC3, alamarBlue, 72 h): 15.7 µM
Selectivity index ([4]; IC50(MRC5)/IC50(HSC-3)): 1.5
Selectivity index ([4]; IC50(PBMC)/IC50(HSC-3)): 1.2
IC50 ([5]; Homo sapiens, HepG2, alamarBlue, 72 h): 9.4 µM
Selectivity index ([5]; IC50(MRC5)/IC50(HepG2)): 2.6
Selectivity index ([5]; IC50(PBMC)/IC50(HepG2)): 2
IC50 ([6]; Homo sapiens, K562, alamarBlue, 72 h): 7.8 µM
Selectivity index ([6]; IC50(MRC5)/IC50(K-562)): 3.1
Selectivity index ([6]; IC50(PBMC)/IC50(K-562)): 2.4
IC50 ([7]; Homo sapiens, MCF7, alamarBlue, 72 h): 12 µM
Selectivity index ([7]; IC50(MRC5)/IC50(MCF7)): 2
Selectivity index ([7]; IC50(PBMC)/IC50(MCF7)): 1.5
IC50 ([8]; Homo sapiens, SCC-9, SCC9, alamarBlue, 72 h): 26.6 µM
Selectivity index ([8]; IC50(MRC5)/IC50(SCC-9)): 0.9
Selectivity index ([8]; IC50(PBMC)/IC50(SCC-9)): 0.7
IC50 [9]: 24.1 µM
IC50 [10]: 18.3 µM
IC50 [11]: 8 µM
reduction of the number of viable cells ([12]; 3.5 μM, 24 h): 50.2%
reduction of the number of viable cells ([12]; 3.5 μM, 48 h): 79.9%
reduction of the number of viable cells ([12]; 7 μM, 24 h): 64.4%
reduction of the number of viable cells ([12]; 7 μM, 48 h): 84.6%
reduction of the number of viable cells ([12]; 14 μM, 24 h): 71.8%
reduction of the number of viable cells ([12]; 14 μM, 48 h): 89.4%
number of nonviable cells ([12]; HCT116, trypan blue, 3.5, 7, 14 μM, 24 and 48 h): No significant increase
mitochondrial depolarization [13]: induced mitochondrial depolarization
caspase-3 activation [14]: increased caspase-3 activation
nitric oxide level [15]: increases nitric oxide
GSH levels [16]: decreased
